Data reported in PMC8671953 (Nanotheranostics, 2022).

Tests used:
[1] = molecular target: human recombinant GCPII enzyme (Homo sapiens, UniProt Q04609); assay: GCPII activity assay (IC50), NAA-[3H]-G hydrolysis; format: biochemical; details: human recombinant GCPII 40 pM, NAA-[3H]-G 30 nM, 37 °C, 20 min
EAE mice = details: cited from earlier work
GCPII = test system: GCPII; design: method as in PMID 23169655, PMID 26826008; details: ref [8], [9]; cited from earlier work
[2] = cited from earlier work

Chain of human recombinant GCPII enzyme (Q04609 whole entry): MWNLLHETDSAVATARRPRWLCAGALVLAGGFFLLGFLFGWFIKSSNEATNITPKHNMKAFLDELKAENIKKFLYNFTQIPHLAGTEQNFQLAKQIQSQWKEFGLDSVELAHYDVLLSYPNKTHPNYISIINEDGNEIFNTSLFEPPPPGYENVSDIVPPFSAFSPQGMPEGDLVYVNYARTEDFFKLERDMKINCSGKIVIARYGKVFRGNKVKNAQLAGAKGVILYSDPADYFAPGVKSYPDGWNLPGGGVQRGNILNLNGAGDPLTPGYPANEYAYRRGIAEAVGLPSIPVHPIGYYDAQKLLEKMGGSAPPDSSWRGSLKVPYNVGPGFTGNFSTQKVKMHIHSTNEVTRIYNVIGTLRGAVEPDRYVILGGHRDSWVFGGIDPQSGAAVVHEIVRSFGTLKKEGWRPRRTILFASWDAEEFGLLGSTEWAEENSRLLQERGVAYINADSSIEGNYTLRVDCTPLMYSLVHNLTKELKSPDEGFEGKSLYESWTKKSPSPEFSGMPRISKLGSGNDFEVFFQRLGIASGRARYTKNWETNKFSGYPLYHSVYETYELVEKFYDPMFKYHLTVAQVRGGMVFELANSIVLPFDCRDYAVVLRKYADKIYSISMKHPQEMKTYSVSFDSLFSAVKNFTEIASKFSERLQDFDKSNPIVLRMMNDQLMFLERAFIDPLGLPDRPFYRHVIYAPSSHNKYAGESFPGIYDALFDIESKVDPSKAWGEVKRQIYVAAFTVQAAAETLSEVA

| Structure (SMILES) | IC50 [1] [nM] | effect on EAE disease score (EAE mice; free 2-PMPA treatment, ref [8], [9]) | minimal dose required for positive behavioral effects and alterations in brain NAAG levels (EAE mice; previous dose response studies, ref [9]) [mg/kg] | IC50 (GCPII) [nM] | clearance from circulation ([2]; free drug, ref [9]) | brain penetration (AUCbrain/AUCplasma) ([2]; ref [37]) | oral bioavailability (F) ([2]; ref [37]) [%] |
| --- | --- | --- | --- | --- | --- | --- | --- |
| [N-]=[N+]=NCCOCCOCCOCCOCCOCCOCCOCCOCCOCCOCCOC(=O)CCC(CP(=O)(O)O)C(=O)O (stereo not shown) [2-PMPA-PEG-azide] | 1.6 | – | – | – | – | – | – |
| O=C(O)CCC(CP(=O)(O)O)C(=O)O (stereo not shown) [2-PMPA, 2-(phosphonomethyl)-pentanedioic acid] | – | no effect on EAE disease score | […] | […] | cleared from circulation within six hours | < 0.02 | < 2 |
